{"source": "patent US7625923B2", "about": "“Bicyclic modulators of androgen receptor function” (Bristol-Myers Squibb Company, priority 2004, dated 2009)", "key": {"[1]": {"target": "glucocorticoid receptor (endogenous, A549 cells) (Homo sapiens, UniProt P04150)", "sequence (P04150 whole entry)": "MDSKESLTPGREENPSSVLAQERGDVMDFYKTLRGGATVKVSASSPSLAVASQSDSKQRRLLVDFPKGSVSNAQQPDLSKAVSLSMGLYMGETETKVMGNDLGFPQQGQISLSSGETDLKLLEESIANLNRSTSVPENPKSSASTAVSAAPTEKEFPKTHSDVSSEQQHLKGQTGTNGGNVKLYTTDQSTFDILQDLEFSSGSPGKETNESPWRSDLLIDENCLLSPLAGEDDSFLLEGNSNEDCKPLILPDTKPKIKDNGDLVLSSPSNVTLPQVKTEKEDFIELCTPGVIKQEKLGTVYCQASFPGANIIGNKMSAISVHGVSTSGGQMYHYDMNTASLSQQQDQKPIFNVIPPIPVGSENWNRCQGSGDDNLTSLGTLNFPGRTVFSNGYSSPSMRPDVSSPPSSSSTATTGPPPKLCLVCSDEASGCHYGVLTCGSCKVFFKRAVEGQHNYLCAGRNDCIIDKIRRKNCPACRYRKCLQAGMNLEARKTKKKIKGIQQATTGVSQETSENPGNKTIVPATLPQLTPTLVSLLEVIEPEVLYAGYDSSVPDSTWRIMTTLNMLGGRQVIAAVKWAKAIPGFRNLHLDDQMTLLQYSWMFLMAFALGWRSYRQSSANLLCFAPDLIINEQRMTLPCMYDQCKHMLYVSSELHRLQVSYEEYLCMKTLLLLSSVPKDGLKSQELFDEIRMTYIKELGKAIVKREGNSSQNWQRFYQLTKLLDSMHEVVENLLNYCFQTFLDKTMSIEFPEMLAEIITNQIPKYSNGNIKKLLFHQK", "conditions": "concentration ≦10 μM; 10 ng/mL PMA; 7 h at 37° C.", "description": "The AP-1 assay is a cell-based luciferase reporter assay. A549 cells, which contain endogenous glucocorticoid receptor, were stably transfected with an AP-1 DNA binding site attached to the luciferase gene. Cells are then grown in RPMI+10% fetal calf serum (charcoal-treated)+Penicillin/Streptomycin with 0.5 mg/mL geneticin. Cells are plated the day before the assay at approximately 40000 cells/well. On assay day, the media is removed by aspiration and 20 μL assay buffer (RPMI without phenol red+10% FCS (charcoal-treated)+Pen/Strep) is added to each well. At this point either 20 μL assay buffer (control experiments), the compounds of the present invention (“test compounds”) (dissolved in DMSO and added at varying concentrations) or dexamethasome (100 nM in DMSO, positive control) are added to each well. The plates are then pre-incubated for 15 min at 37° C., followed by stimulation of the cells with 10 ng/mL PMA. The plates are then incubated for 7 h at 37° C. after which 40 μL luciferase substrate reagent is added to each well. Activity is measured by analysis in a luminometer as compared to control experiments treated with buffer or dexamethasome."}, "androgen receptor": {"target": "T1, androgen receptor (Rattus norvegicus, UniProt P15207)", "T1 sequence (P15207 1-902)": "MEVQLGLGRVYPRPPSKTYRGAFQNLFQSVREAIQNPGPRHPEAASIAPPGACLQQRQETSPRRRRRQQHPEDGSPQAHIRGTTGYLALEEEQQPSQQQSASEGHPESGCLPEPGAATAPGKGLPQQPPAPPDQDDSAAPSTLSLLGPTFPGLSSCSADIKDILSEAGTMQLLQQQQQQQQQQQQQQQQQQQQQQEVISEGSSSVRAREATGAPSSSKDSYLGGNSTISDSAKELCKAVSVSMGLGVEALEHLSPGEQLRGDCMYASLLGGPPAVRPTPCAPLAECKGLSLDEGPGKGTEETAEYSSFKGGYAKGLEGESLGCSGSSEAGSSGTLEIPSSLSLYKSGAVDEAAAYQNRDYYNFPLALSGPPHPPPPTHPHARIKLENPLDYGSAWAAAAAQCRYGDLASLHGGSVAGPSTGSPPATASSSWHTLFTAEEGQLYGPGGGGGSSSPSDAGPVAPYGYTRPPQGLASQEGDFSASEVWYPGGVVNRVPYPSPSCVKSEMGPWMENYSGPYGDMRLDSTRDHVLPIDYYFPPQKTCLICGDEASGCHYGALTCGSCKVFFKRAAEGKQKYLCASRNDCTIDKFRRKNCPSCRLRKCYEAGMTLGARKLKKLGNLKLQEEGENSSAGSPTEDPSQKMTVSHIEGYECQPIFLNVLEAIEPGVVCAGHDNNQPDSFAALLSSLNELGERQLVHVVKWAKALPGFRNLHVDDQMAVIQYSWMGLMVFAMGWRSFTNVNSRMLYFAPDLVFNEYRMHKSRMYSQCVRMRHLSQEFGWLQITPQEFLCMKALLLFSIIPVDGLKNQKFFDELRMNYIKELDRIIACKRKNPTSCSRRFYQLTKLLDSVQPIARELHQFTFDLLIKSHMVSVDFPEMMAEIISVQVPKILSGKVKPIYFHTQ", "conditions": "castrated rats", "quoted_text": "The basis of this assay lies in the well-defined action of androgenic agents on the maintenance and growth of muscle tissues and sexual accessory organs in animals and man. […] As described above, the effects of androgens on maintenance of male sexual accessory organs, such as the prostate and seminal vesicles, is well described. Castration results in rapid involution and atrophy of the prostate and seminal vesicles. This effect can be reversed by exogenous addition of androgens. Since both the levator ani muscle and the male sex organs are the tissues most responsive to the effects of androgenic agents, this model is used to determine the androgen dependent reversal of atrophy in the levator ani muscle and the sex accessory organs in immature castrated rats. Sexually mature rats (200-250 g, 6-8 weeks-old, Sprague-Dawley, Harlan) were acquired castrated from the vendor (Taconic). The rats were divided into groups and treated daily for 7 to 14 days with one of the following: • 1. Control vehicle • 2. […] TP plus Bicalutamide (administered p.o. in PEGTW, QD), a recognized antiandrogen, as a reference compound. • 4.\nAt the end of the 7-14-day treatment, the animals were sacrificed by carbon dioxide, and the levator ani, seminal vesicle and ventral prostate weighed. […]"}, "[2]": {"tested_on": "wild type AR (MDA 453 cells)", "conditions": "read-out: Kd for [3H]-DHT, Scatchard analysis, 4 h at 37° C.", "description": "For the whole-cell binding assay, human LNCaP cells (T877A mutant AR) or MDA 453 (wild type AR) in 96-well microtiter plates containing RPMI 1640 or DMEM supplemented with 10% charcoal stripped CA-FBS (Cocaleco Biologicals) respectively, were incubated at 37° C. to remove any endogenous ligand that might be complexed with the receptor in the cells.\nFor the saturation analysis, the difference between the total binding and the non-specific binding, was defined as specific binding. […] See e.g. D. Rodbard, Mathematics and statistics of ligand assays: an illustrated guide: In: J. Langon and J. J. Clapp, eds., Ligand Assay, Masson Publishing U.S.A., Inc., New York, pp. 45-99, (1981), the disclosure of which is herein incorporated by reference.\nTwo replicates were used for each sample.\n[formula] After correcting for non-specific binding, IC50 values were determined. […] C2C12 Mouse Myoblast Transactivation Assay"}}, "data": [{"compound": "C[C@@H]1C[C@H]2[C@@H]3CCC4=CC(=O)C=C[C@]4(C)[C@@]3(F)[C@@H](O)C[C@]2(C)[C@@]1(O)C(=O)CO", "note": "[dexamethasone]", "values": [{"measurement": "% inhibition of the AP-1 reporter system vs buffer control with PMA alone", "setting": "[1]", "value": 65, "unit": "%"}]}, {"compound": "CCC(=O)O[C@H]1CC[C@H]2[C@@H]3CCC4=CC(=O)CC[C@]4(C)[C@H]3CC[C@]12C", "note": "[testosterone propionate, Testosterone Propionate]", "values": [{"measurement": "EC50 (increase in organ weight)", "setting": "androgen receptor", "value": "~0.03", "unit": "mg"}]}, {"compound": "tritiated dihydrotestosterone [[^3H]-DHT]", "values": [{"measurement": "Kd", "setting": "[2]", "value": 0.7, "unit": "nM"}]}]}
